In assay [1] the target is T1, G-protein coupled receptor 35 (Homo sapiens, UniProt Q9HC97). Nature of the assay: Agonist activity at GPR35 receptor in human HT-29 cells at 32 uM after 10 mins by dynamic mass redistribution assay in the presence of SPB05142. The class given is functional, cell-based.
Assay [2] has as its target T1, G-protein coupled receptor 35. Nature of the assay: Agonist activity at GPR35 receptor in human HT-29 cells after 10 mins by dynamic mass redistribution assay. The format is functional, cell-based.
Assay [3] has the same target. Nature of the assay: Agonist activity at GPR35 receptor in human U2OS cells coexpressing Gal4-VP16-TEV assessed as beta arrestin translocation after 5 hrs by beta lactamase reporter gene assay relative to control. The format is functional, cell-based.
For assay [4] the target is unchanged. Nature of the assay: Partial agonist activity at GPR35 receptor in human HT-29 cells after 10 mins by dynamic mass redistribution assay. The class given is functional, cell-based.
Assay [5] shares this target. In words: Agonist activity at GPR35 receptor in human HT-29 cells assessed as shift in resonant wavelength of biosensor stimulation after 10 mins by dynamic mass redistribution assay relative to control. The format is functional, cell-based.
Assay [6] shares this target. Nature of the assay: Agonist activity at GPR35 receptor in human U2OS cells coexpressing Gal4-VP16-TEV assessed as beta arrestin translocation after 5 hrs by beta lactamase reporter gene assay. The class given is functional, cell-based. Background: In a reporter assay the amount or activity of a reporter protein is the signal.
Assay [7] shares this target. Nature of the assay: Desensitization of GPR35 receptor in human HT-29 cells assessed as inhibition of zaprinast-induced dynamic mass redistribution after 10 mins. The format is cell-based.
The target is the same in assay [8]. Nature of the assay: Agonist activity at GPR35 receptor in human HT-29 cells at 16 uM after 10 mins by dynamic mass redistribution assay in the presence of SPB05142. The format is functional, cell-based.
Assay [9] has the same target. Nature of the assay: Agonist activity at GPR35 receptor in human HT-29 cells at 8 uM after 10 mins by dynamic mass redistribution assay in the presence of SPB05142. The class given is functional, cell-based.
The target is the same in assay [10]. Nature of the assay: Partial agonist activity at GPR35 receptor in human U2OS cells coexpressing Gal4-VP16-TEV assessed as beta arrestin translocation after 5 hrs by beta lactamase reporter gene assay. The format is functional, cell-based.
Assay [11] shares this target. In words: Agonist activity at GPR35 receptor in human HT-29 cells at 4 uM after 10 mins by dynamic mass redistribution assay in the presence of SPB05142. The format is functional, cell-based.
Assay [12] shares this target. In words: Agonist activity at GPR35 receptor in human HT-29 cells at 2 uM after 10 mins by dynamic mass redistribution assay in the presence of SPB05142. The class given is functional, cell-based.

The source made the active and inactive calls. The rule behind the calls is not given here.

15 compounds from ChEMBL document CHEMBL2034837, “Discovery of Natural Phenols as G Protein-Coupled Receptor-35 (GPR35) Agonists” (ACS Med Chem Lett, 2012) can be followed below.

T1 sequence (Q9HC97 whole entry): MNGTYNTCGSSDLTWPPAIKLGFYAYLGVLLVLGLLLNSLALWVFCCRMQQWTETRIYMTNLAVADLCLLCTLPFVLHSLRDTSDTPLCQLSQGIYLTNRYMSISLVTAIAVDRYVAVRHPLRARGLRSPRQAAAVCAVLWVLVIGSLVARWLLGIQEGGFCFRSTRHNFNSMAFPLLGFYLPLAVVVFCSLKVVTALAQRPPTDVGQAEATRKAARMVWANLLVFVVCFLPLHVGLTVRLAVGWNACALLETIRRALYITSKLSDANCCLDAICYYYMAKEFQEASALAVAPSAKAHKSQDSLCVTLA

Turning to `O=c1c(O)c(-c2ccc(O)c(O)c2)oc2cc(O)cc(O)c12` [QUERCETIN], in assay [1], the outcome was inactive. The EC50 in assay [2] turned out to be 8.02 µM; in assay [6], 5.93 µM. Besides, the Ratio in assay [3] came out at 2.3. The result in [4] was Active. Moreover, the Efficacy in [5] was 40 picometer. Besides, in [7], the IC50 amounted to 15.4 µM.

Consider `CCCCCc1c2c(cc(O)c1C(=O)O)OC(=O)c1c(cc(OC)cc1C(=O)CCCC)O2` [LOBARIC ACID], for which the figures for the EC50 in [2] and in assay [6] were 2.39 µM and 17.6 µM, respectively. The Ratio in assay [3] was determined as 2. Besides, the outcome in assay [8] was inactive. In addition, the Efficacy in assay [5] is 317 picometer. Besides, in assay [7], the IC50 amounted to 4.54 µM.

For the compound `CCCOc1ccccc1-c1nc2[nH]nnc2c(=O)[nH]1`, the Efficacy in assay [5] amounted to 269 picometer.

With `O=c1c(O)c(-c2ccc(O)cc2O)oc2cc(O)cc(O)c12` [MORIN], in assay [9], the result was inactive. In addition, the EC50 worked out at 1.33 µM in assay [2] and 11.2 µM in assay [6]. Besides, in assay [3], the Ratio came to 9.8. The Efficacy in assay [5] stood at 284 picometer. The IC50 in assay [7] amounted to 1.6 µM.

For the compound `Cc1c(C(=O)O)sc2c(Br)csc12`, the Ratio in [3] is 13.9. Further, the Efficacy in assay [5] was 283 picometer. Also, the EC50 in assay [6] worked out at 17.6 µM.

As to `CC(C)=CCC1=C(O)C(=O)c2ccccc2C1=O` [LAPACHOL], in assay [9], the outcome was inactive. In addition, the EC50 in [2] amounted to 2.84 µM; in assay [6], 47.9 µM. For the same compound, in [3], the Ratio came out at 8.7. Further, the Efficacy in [5] was 328 picometer. Further, the IC50 in [7] is 4.66 µM.

In the case of `O=c1cc(-c2ccccc2)oc2cc(O)c(O)c(O)c12` [BAICALEIN], the result in assay [1] was inactive. Moreover, in assay [10], the result was Active. The figures for the EC50 in assay [2] and in [6] were 10.3 µM and 22.7 µM, respectively. Besides, in [3], the Ratio is 2.1. In assay [5], the Efficacy was determined as 248 picometer. Also, the IC50 in [7] came to 28.2 µM.

Turning to `O=C1C=C2CC3(O)COc4c(ccc(O)c4O)C3=C2C=C1O` (stereo unspecified) [HEMATEIN], the figures for the EC50 in assay [2] and in assay [6] were 11.1 µM and 4.7 µM, respectively. Moreover, the Ratio in assay [3] worked out at 2.1. In assay [8], the outcome was inactive. The Efficacy in [5] came out at 391 picometer. Moreover, the IC50 in [7] was 30.4 µM.

`O=c1cc(-c2ccc(O)c(O)c2)oc2cc(O)cc(O)c12` [LUTEOLIN]: the result in [1] was inactive. Further, the outcome in [10] and in assay [4] was Active. Moreover, the values for the EC50 in assay [2] and in assay [6] were 7.24 µM and 3.2 µM, respectively. Moreover, in assay [3], the Ratio was 1.5. In addition, the Efficacy in [5] came to 68 picometer. For the same compound, the IC50 in assay [7] was 18.6 µM.

Regarding `O=C(O)c1cccnc1Nc1cccc(C(F)(F)F)c1`, the result in assay [1] was inactive. The outcome in assay [10] was Active. The Activity entry in assay [2] and in assay [7] was “Dose-dependent effect” in each case. The Efficacy in [5] worked out at 260 picometer.

As to `O=c1c(O)c(-c2cc(O)c(O)c(O)c2)oc2cc(O)cc(O)c12` [MYRICETIN], the outcome in assay [9] was inactive. The figures for the EC50 in [2] and in [6] were 3.02 µM and 14.7 µM, respectively. Further, the Ratio in [3] worked out at 9.2. For the same compound, in assay [4], the outcome was Active. Besides, in assay [5], the Efficacy came out at 224 picometer. Also, the IC50 in [7] was found to be 2.12 µM.

Regarding `N#C/C(=C\c1ccc(O)cc1)C(=O)O` [alpha-CYANO-4-HYDROXYCINNAMIC ACID], the outcome in [9] was inactive. Also, the EC50 turned out to be 9.8 µM in assay [2] and 70.7 µM in assay [6]. In addition, the Ratio in assay [3] came out at 4. Moreover, the Efficacy in assay [5] amounted to 331 picometer. For the same compound, the IC50 in [7] stood at 30.4 µM.

On to `O=C(O)c1cc(O)c(=O)c2c(O)c(O)ccc2c1` [7-DESHYDROXYPYROGALLIN-4-CARBOXYLIC ACID], for which the EC50 came out at 0.054 µM in [2] and 12.4 µM in assay [6]. For the same compound, the Ratio in assay [3] amounted to 10.9. For the same compound, the outcome in [11] was inactive. In addition, the Efficacy in assay [5] was found to be 233 picometer. In assay [7], the IC50 was 0.11 µM.

As for `O=c1oc2c(O)c(O)cc3c(=O)oc4c(O)c(O)cc1c4c23` [ELLAGIC ACID], the EC50 in assay [2] came out at 0.11 µM; in assay [6] it was 2.96 µM. Besides, the Ratio in assay [3] was 3.4. Also, the Efficacy in [5] was 319 picometer. Also, in assay [12], the outcome was inactive. The IC50 in assay [7] was 0.1 µM.

For `CC(=O)NCCc1ccc(O)c(-c2c(O)c(O)c3c(c2O)C(=O)c2c(cc(O)c(C(=O)O)c2C(=O)O)C3=O)c1` [LACCACID ACID A], in assay [1], the outcome was inactive. Also, the EC50 worked out at 0.39 µM in [2] and 51.5 µM in [6]. The Ratio in assay [3] is 3.5. In assay [5], the Efficacy came to 263 picometer. Moreover, the IC50 in assay [7] stood at 0.39 µM.

A word on the EC50: it is the concentration that produces a half-maximal response. In general, IC50 refers to the concentration needed to halve the response being measured.
